Counter-ions that a name gives are not always drawn. The source made the active and inactive calls.
Assays:
Mu-type opioid receptor = Mu-type opioid receptor (Homo sapiens, UniProt P35372); format: functional, cell-based;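 further: U2OS cells with beta-arrestin recruitment to OPRM1 by beta-gal complementation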
[1] = target: 5-hydroxytryptamine receptor 2A (Mus musculus, UniProt P35363); format: functional, cell-based;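 further: CHO-K1 cells with tagged receptor and beta-arrestin; agonist potency measured as compound-induced activation of the receptor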
[2] = HEK293T cell cytotoxicity, dose response, cytotoxicity control for HIV Vif inhibitor project, cherry-picks (AID 652208); format: functional, cell-based
Cytochrome P450 1A2 = target: T1, Cytochrome P450 1A2 (Homo sapiens, UniProt P05177);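 further: PubChem cytochrome P450 panel assay, CYP1A2 panel member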
T1 sequence (P05177 whole entry): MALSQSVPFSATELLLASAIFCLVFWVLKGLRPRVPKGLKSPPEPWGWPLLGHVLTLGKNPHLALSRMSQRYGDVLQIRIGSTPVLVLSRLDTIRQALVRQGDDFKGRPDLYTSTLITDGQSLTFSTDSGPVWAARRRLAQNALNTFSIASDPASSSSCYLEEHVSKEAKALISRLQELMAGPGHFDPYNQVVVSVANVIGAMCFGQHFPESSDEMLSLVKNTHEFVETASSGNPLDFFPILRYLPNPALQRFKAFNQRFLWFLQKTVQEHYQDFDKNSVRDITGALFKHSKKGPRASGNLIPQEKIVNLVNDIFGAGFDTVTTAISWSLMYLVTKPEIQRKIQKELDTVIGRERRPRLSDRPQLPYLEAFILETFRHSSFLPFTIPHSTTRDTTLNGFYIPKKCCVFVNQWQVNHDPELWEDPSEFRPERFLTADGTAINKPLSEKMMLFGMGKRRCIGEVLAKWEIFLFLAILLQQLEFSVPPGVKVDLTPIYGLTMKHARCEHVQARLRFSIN

Cytochrome P450 3A4 = Cytochrome P450 3A4 (Homo sapiens, UniProt P08684);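 further: CYP3A4 tested as one member of a cytochrome P450 panel screen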
[3] = Luminescence Cell-Based Dose Confirmation HTS to Identify Activators of 5'UTR Stem-Loop Driven Alpha-Synuclein mRNA Translation in H4 Neuroglioblastoma Cells. [Related pubchem assays: 1829 (Project Summary), 1814 (Primary HTS)]; format: functional
[4] = Luminescence Cell-Based Dose Response HTS to Identify Activators of Luciferase Translation or Activity in H4 […] Cells. [Related pubchem assays: 1829 (Project Summary), 1814 (Primary HTS)]; format: functional
H4 = test: Luminescence Cell-Based Dose Response HTS to Identify Activators of 5'UTR Stem-Loop Driven Prion Protein mRNA Translation in H4 Neuroglioblastoma Cells. [Related pubchem assays: 1829 (Project Summary), 1814 (Primary HTS)]; format: functional; details: Homo sapiens
[5] = ADAM10 inhibitors, peptide cleavage, dose response, biochemical, QFRET (AID 743254);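 further: ADAM10 enzyme with the DM2 quenched FRET peptide as substrate; EDANS fluorescence gain as the protease cuts the substrate; inhibitor potency against ADAM10 proteolytic activity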
cells [6] = format: functional, cell-based
[7] = target: T2, Nuclear receptor subfamily 0 group B member 1 (Homo sapiens, UniProt P51843); format: functional, cell-based;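 further: HEK293T cells transfected with SF-1 and DAX-1 plus StAR promoter luciferase reporter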
T2 sequence (P51843 whole entry): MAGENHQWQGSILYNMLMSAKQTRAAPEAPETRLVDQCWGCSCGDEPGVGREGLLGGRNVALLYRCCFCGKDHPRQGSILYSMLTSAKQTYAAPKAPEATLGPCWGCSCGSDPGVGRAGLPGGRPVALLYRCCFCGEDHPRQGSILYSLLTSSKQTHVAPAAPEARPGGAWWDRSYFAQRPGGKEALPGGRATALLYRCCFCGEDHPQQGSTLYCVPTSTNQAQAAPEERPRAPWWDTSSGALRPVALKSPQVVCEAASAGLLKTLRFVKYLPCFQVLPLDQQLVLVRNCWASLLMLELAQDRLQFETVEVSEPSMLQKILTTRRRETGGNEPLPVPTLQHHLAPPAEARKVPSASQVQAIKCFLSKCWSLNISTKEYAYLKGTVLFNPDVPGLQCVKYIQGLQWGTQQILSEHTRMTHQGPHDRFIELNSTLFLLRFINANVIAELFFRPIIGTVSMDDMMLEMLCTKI

[8] = target: SWI/SNF-related matrix-associated actin-dependent regulator of chromatin subfamily A member 2 (Homo sapiens, UniProt P51531); test: Luminescence-based cell-based high throughput dose response assay to identify activators of the function of SWI/SNF related, matrix associated, actin dependent regulator of chromatin, subfamily a, member 2 (SMARCA2, BRM).; format: functional
[9] = Counterscreen for activators of the function of SWI/SNF related, matrix associated, actin dependent regulator of chromatin, subfamily a, member 2 (SMARCA2, BRM): Luminescence-based cell-based high throughput dose response assay to identify non-selective compounds using the VP16 reporter assay.; format: functional
Large T antigen = Large T antigen (Simian virus 40, UniProt P03070); format: functional, Betapolyomavirus macacae;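 further: Confirmatory-stage PubChem screen for compounds that inhibit SV40 T antigen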
[10] = inhibitors of intracellular T. cruzi replication, confirmation, NIH3T3 host cells, beta-gal luminescence (AID 2044); format: functional, cell-based;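 further: intracellular parasites grown in NIH/3T3 mouse fibroblasts as host cells; luminescent beta-galactosidase reporter signal from transgenic T. cruzi replicating inside host cells; inhibitors lower the luminescence signal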
[11] = cytotoxicity toward NIH3T3 fibroblasts, dose response, counter-screen, cell-based, ATP luminescence, mouse fibroblasts (AID 2010); format: functional;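 further: cells exposed to compound for about 90 hours before reading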
[12] = target: Glucose-6-phosphate 1-dehydrogenase (Homo sapiens, UniProt P11413); test: human G6PD enzyme inhibitors, dose response, selectivity assay for P. falciparum G6PD inhibitor project, biochemical, fluorescence (AID 504792); format: functional
Vero = test: cells; format: functional; details: Chlorocebus sabaeus
[13] = target: T3, Mitochondrial peptide methionine sulfoxide reductase (Bos taurus, UniProt P54149); test: Absorbance-based biochemical high throughput dose response assay for activators of Methionine sulfoxide reductase A (MsrA).; format: functional
T3 sequence (P54149 whole entry): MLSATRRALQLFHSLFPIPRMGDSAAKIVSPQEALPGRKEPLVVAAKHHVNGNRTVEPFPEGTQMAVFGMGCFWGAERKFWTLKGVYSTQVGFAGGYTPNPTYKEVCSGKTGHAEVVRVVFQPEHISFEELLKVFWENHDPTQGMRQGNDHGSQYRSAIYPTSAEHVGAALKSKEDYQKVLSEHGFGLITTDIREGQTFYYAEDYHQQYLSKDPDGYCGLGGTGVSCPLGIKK

[14] = P. falciparum late gametocyte killing, dose response, luminescence (AID 1117278); format: functional, cell-based;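 further: gametocytes exposed to compound for 24 hours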
[15] = Jurkat T cell cytotoxicity, dose response, cytotoxicity control for P. falciparum gametocyte viability project, luminescence (AID 1117277); format: functional, cell-based;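 further: potency reflects loss of cellular ATP meaning fewer viable cells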
INS1 = test: beta cell apoptosis inhibitors, cytokine rescue, dose response, luminescence, retest (AID 449756); format: functional, cell-based; details: Rattus norvegicus;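 further: cell death triggered by IL-1 beta plus TNF-alpha plus IFN-gamma mixture; protective hits raise ATP signal compared with cytokine alone wells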
[16] = target: T4, COUP transcription factor 2 (Homo sapiens, UniProt P24468); test: Luminescence-based cell-based high throughput dose response assay to identify inhibitors of COUP-TFII (NR2F2).; format: functional;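 further: HEK293 cells transiently cotransfected with COUP-TFII expression vector and reporter; luciferase reporter luminescence driven by COUP-TFII from the pX2-168 reporter plasmid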
T4 sequence (P24468 whole entry): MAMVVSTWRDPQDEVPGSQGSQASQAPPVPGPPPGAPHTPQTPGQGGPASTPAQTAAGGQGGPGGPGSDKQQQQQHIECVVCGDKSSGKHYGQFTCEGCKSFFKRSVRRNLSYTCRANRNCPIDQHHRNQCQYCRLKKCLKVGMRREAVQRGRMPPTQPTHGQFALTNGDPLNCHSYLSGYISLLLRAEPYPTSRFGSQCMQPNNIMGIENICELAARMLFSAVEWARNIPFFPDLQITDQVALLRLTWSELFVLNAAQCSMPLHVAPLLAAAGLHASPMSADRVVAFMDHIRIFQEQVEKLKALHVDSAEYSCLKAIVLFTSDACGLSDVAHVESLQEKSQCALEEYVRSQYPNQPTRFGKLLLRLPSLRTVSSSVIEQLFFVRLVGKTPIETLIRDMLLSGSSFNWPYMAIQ

[17] = target: T5, Heat shock factor protein 1 (Mus musculus, UniProt P38532); test: inhibition of MG132-induced HSE-luciferase signal, confirmation, cell-based, NIH3T3, luminescence, dose retest (AID 2382); format: functional;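 further: NIH3T3 fibroblasts with HSF1-driven luciferase reporter stressed by proteasome inhibitor MG132; luminescence from HSF1-driven luciferase expression after 8 hours of MG132 stress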
T5 sequence (P38532 whole entry): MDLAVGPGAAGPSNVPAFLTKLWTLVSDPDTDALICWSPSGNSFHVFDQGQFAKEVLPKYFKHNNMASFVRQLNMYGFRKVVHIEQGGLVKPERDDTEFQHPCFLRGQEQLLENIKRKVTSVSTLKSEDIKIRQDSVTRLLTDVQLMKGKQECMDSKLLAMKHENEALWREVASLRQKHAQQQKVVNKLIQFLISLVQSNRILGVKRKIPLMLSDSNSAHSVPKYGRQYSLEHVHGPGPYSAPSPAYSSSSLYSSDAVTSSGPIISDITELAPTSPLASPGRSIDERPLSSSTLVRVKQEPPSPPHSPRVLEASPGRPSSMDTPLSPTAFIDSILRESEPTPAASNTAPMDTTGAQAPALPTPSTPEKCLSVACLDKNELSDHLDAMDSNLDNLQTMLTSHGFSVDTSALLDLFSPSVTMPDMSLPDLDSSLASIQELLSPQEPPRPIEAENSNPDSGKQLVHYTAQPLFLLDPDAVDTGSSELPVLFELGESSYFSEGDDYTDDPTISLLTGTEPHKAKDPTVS

Major prion protein = Major prion protein (Homo sapiens, UniProt P04156); format: functional, cell-based
cells [18] = test: cells
[19] = target: Peroxisome proliferator-activated receptor gamma/Nuclear receptor coactivator 1 (Homo sapiens, UniProt P37231); test: (§1) TR-FRET dose response biochemical High Throughput Screening assay for agonists of the steroid receptor coactivator 1 (SRC-1) recruitment by the peroxisome proliferator-activated receptor gamma (PPAR gamma): non-selective agonists. [Related pubchem assays (depositor defined):AID1300, AID1808, AID504735, AID631]; format: protein assay
[20] = target: Peroxisome proliferator-activated receptor gamma/Nuclear receptor coactivator 3 (Homo sapiens, UniProt P37231); test: as §1, with “3 (SRC-3)” for “1 (SRC-1)”, “assays: 1301 (Confirmation screen.), 1048 (Primary screen.)]” for “assays (depositor defined):AID1300, AID1808, AID504735, AID631]”; format: functional
[21] = target: Peroxisome proliferator-activated receptor gamma/Nuclear receptor coactivator 2 (Homo sapiens, UniProt P37231); test: TR-FRET dose response biochemical High Throughput Screening assay for agonists of the steroid receptor coactivator 2 (SRC-2) recruitment by the peroxisome proliferator-activated receptor gamma (PPAR gamma): non-selective agonists. [Related pubchem assays: 1297, 1032 ]; format: functional
[22] = lymphoblastoid cell cytotoxicity, dose response, cytotoxicity control, plate reader, dry powder, set 2 (AID 624367); format: functional
Fatty acid synthase = Fatty acid synthase (Homo sapiens, UniProt P49327); test: FAS thioesterase domain inhibitors, SAR follow-up, biochemical, endpoint fluorescence intensity, powder samples (AID 652164); format: functional

In the case of `CCCN(CCc1ccccc1)C1CCc2c(O)cccc2C1` (stereo unspecified), the EC50 (Mu-type opioid receptor) is reported as 92.6 µM (inactive) and the EC50 [1] is reported as 0.0038 µM (active).
With `Cc1nn(Cc2c(Cl)cccc2Cl)c(C)c1NC(=O)c1cnn2c(C(F)F)cc(-c3ccccc3)nc12` the AC50 [2] was 26 µM (active), the AC50 (Cytochrome P450 1A2) was 31.6 µM (inconclusive) and the AC50 (Cytochrome P450 3A4) was “inconclusive”.
In the case of `CCc1ccc(-c2cn(C3CCCCC3)c(S)n2)cc1`, the EC50 [3] is reported as 67.1 µM (active), the EC50 [4] is reported as > 120 µM (not active) and the EC50 (H4) is reported as > 60 µM (not active). The IC50 [5] was > 69.5 µM (inactive).
In the case of `COc1ccc2oc(C(=O)NCC3CCCO3)c(C)c2c1` (stereo unspecified), the IC50 (cells [6]) is reported as > 67.6 µM (inactive) and the IC50 [7] is reported as > 67.6 µM (inactive).
In the case of `O=C(COC(=O)c1nc(Cl)c(Cl)c(Cl)c1Cl)c1ccc[nH]1`, the EC50 [8] is reported as > 91.1 µM (inactive) and the EC50 [9] is reported as > 91.1 µM (inactive).
In the case of `O=c1[nH]sc2cc(F)ccc12`, the IC50 (Large T antigen) is reported as 33.3 µM (active), the EC50 [10] is reported as 0.202 µM (active) and the EC50 [11] is reported as 16.1 µM (active). The IC50 [12] was > 80 µM (inactive), the CC50 (Vero) was > 25 µM (active) and the EC50 [13] was > 104 µM (inactive). The EC50 [8] was > 91.1 µM (inactive), the EC50 [9] was > 91.1 µM (inactive) and the IC50 [14] was > 36.3 µM (inactive). The IC50 [15] was 22.2 µM (inactive).
In the case of `CC(C)OCCCNc1[nH]cnc2c3cc(F)ccc3nc1-2`, the AC50 (INS1) is reported as 1.63 µM (active), the AC50 [2] is reported as > 52 µM (inactive) and the IC50 [16] is reported as 6.62 µM (active).
For `COc1nc(-c2ccccc2)c2cc(Br)ccc2n1`, the EC50 [17] was > 195 µM (not active), the IC50 (Major prion protein) was 5.53 µM (active) and the IC50 (cells [18]) was > 138 µM (inactive).
With `C#CCn1/c(=N/C(=O)c2ccc(Br)s2)sc2cccc(OC)c21` the EC50 [19] was 10.3 µM (inactive), the EC50 [20] was 18.1 µM (not active) and the EC50 [21] was 10.6 µM (not active). For the same compound, the IC50 (Major prion protein) was 2.6 µM (active) and the IC50 (cells [18]) was 48.6 µM (inactive).
For `Cc1noc(C)c1-c1ccc(C(=O)Nc2ccccc2)c2occc12`, the IC50 (cells [6]) was > 67.5 µM (inactive) and the IC50 [7] was > 2.5 µM (active).
For `CN1C(=O)c2cc(NC(=O)c3ccc(C(F)(F)F)cc3)ccc2OC[C@H]2O[C@@H](CC(=O)NC3Cc4ccccc4C3)CC[C@H]21`, the AbsAC35 [22] was 40.05 µM.
For `CN(C)S(=O)(=O)c1ccc(-c2csc(NC(=O)C3CCCC3)n2)cc1`, the IC50 (Fatty acid synthase) was 1.55 µM (active).
With `CN(C)S(=O)(=O)c1ccc(-c2csc(NC(=O)C3CC3)n2)cc1` the IC50 (Fatty acid synthase) was 1.23 µM (active).
In the case of `CNC[C@H](O)c1cccc(O)c1` [PHENYLEPHRINE HYDROCHLORIDE], the EC50 (Mu-type opioid receptor) is reported as 92.4 µM (inactive) and the EC50 [1] is reported as 19.3 µM (inactive).
